Measured values reported in US20260070899A1, “N-(2-(4-CYANOTHIAZOLIDIN-3-YL)-2-OXOETHYL)-QUINOLINE-4-CARBOXAMIDES” (AstraZeneca AB, priority 2022, published 2026).

Columns and labels:
FAP Mouse Plasma = target: T1, FAP Mouse Plasma (Mus musculus, UniProt P97321); assay: FAP plasma inhibition assay, mouse plasma; assay type: biochemical; details: mouse plasma dilution 1:67, Ala-Pro-AMC 75 μM; n = 1
T1 construct: Plasma (anticoagulant K2EDTA) was used as the enzyme source; tissue AZ AST Biobank; host or cells: mouse plasma (K2EDTA)
T1 sequence (P97321 24-761 limits assumed): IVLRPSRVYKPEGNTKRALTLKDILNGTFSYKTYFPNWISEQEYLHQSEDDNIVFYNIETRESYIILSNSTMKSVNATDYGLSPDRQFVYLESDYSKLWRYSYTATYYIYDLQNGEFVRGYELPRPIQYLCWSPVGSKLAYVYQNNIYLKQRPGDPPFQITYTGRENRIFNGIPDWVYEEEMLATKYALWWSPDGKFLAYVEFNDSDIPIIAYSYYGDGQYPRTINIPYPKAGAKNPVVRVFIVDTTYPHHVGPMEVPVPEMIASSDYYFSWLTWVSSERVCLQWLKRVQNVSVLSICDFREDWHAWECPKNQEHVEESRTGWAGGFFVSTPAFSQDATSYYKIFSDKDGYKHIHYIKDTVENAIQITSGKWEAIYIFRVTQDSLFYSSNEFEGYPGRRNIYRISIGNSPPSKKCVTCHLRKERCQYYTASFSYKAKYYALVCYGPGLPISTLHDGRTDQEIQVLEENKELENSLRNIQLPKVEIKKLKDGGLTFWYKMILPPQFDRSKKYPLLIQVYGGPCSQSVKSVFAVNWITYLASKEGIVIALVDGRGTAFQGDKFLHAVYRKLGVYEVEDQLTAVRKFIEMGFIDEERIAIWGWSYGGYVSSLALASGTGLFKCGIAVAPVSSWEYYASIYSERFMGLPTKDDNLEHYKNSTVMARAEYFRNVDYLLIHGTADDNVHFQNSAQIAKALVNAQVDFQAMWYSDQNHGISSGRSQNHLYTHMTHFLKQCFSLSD
Procedure: (§1) This assay was adapted from the method described in Example 89 for detection of FAP target engagement enzyme activity in plasma. Plasma (anticoagulant K2EDTA) was used as the enzyme source: Human plasma (Pooled from AZ Biobank) and Mouse plasma (AZ AST Biobank) and Cynomolgus plasma (BioIVT, #NHP00PLK2FNN, lot CYN222895). 384-Well black fluotrack PS plates (Greiner 781076) were used. 20 μL diluted plasma (Cynomolgus and Human plasma dilution 1:40, Mouse plasma dilution 1:67) in buffer (PBS, 0.1% BSA) was added to 0.6 μL compounds (in DMSO). Compounds were tested using 10 CR, 3 fold dilution series from 500 nM FAC. Two replicates for each assay point were run on the same plate. A fluorescence blank read was taken before substrate addition. Substrate, Ala-Pro-AMC (ARI-3144) stock solution (20 mM in DMSO) was diluted in buffer (PBS, 0.1% BSA) to 150 μM concentration and 20 μL added giving 75 μM FAC. Plates were incubated for 40 min at rt in the dark. The plates were read on a Beckman Paradigm® reader with excitation 360 nm and emission 465 nm. Data were analyzed in Excel (IDBS XLfit Add-In) using a one site dose response model (4-parameter logistic fit).

FAP Human Plasma = target: T2, FAP Human Plasma (Homo sapiens, UniProt Q12884); assay: FAP plasma inhibition assay, human plasma; assay type: biochemical; details: human plasma dilution 1:40, Ala-Pro-AMC 75 μM; n = 1
T2 construct: Plasma (anticoagulant K2EDTA) was used as the enzyme source; tissue AZ Biobank; host or cells: pooled human plasma (K2EDTA)
T2 sequence (Q12884 24-760 limits assumed): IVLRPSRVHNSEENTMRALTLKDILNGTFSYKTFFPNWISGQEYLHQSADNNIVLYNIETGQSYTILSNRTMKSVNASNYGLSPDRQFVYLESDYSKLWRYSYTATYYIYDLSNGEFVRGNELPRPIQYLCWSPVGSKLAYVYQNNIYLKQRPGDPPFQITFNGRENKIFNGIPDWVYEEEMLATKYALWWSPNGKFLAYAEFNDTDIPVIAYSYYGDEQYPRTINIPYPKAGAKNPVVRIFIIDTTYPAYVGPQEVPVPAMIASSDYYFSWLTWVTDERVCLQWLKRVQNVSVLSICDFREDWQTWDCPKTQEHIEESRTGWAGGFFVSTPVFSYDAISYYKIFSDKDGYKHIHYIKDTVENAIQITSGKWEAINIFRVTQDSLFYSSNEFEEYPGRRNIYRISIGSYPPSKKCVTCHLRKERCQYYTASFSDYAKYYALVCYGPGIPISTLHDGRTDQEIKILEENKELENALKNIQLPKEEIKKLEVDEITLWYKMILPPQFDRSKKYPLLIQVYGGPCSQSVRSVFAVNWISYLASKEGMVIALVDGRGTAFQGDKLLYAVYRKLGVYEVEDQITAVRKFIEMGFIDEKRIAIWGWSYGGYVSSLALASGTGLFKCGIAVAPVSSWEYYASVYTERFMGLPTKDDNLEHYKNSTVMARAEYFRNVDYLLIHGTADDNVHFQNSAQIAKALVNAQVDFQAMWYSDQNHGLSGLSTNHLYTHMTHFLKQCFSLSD
Procedure: as §1

Structure (SMILES)	IC50 (FAP Mouse Plasma) [nM]	IC50 (FAP Human Plasma) [nM]
N#C[C@@H]1CSCN1C(=O)CNC(=O)c1ccnc2ccc(C3CCCCO3)cc12 (mixture of isomers) [Example 32, N-(2-((R)-4-Cyanothiazolidin-3-yl)-2-oxoethyl)-6-((RS)-tetrahydro-2H-pyran-2-yl)quinoline-4-carboxamide]	1	0.5
CO[C@H]1CC[C@H](c2ccc3nccc(C(=O)NCC(=O)N4CSC[C@H]4C#N)c3c2)CC1 (single isomer, unassigned) [Example 78, N-(2-((R)-4-Cyanothiazolidin-3-yl)-2-oxoethyl)-6-((1r,4R*)-4-methoxycyclohexyl)quinoline-4-carboxamide]	0.2	0.1
CC(C)(F)COc1ccc2nccc(C(=O)NCC(=O)N3CSC[C@H]3C#N)c2c1 [Example 3, (R)—N-(2-(4-Cyanothiazolidin-3-yl)-2-oxoethyl)-6-(2-fluoro-2-methylpropoxy)quinoline-4-carboxamide]	0.5	0.3
N#C[C@@H]1CSCN1C(=O)CNC(=O)c1ccnc2ccc(C3(O)CCOCC3)cc12 [Example 15, (R)—N-(2-(4-Cyanothiazolidin-3-yl)-2-oxoethyl)-6-(4-hydroxy-tetrahydro-2H-pyran-4-yl)quinoline-4-carboxamide]	0.5	0.3
CC(C)(O)c1ccc2nccc(C(=O)NCC(=O)N3CSC[C@H]3C#N)c2c1 [Example 16, (R)—N-(2-(4-Cyanothiazolidin-3-yl)-2-oxoethyl)-6-(2-hydroxypropan-2-yl)quinoline-4-carboxamide]	0.9	0.9
COC(C)(C)c1ccc2nccc(C(=O)NCC(=O)N3CSC[C@H]3C#N)c2c1 [Example 18, (R)—N-(2-(4-Cyanothiazolidin-3-yl)-2-oxoethyl)-6-(2-methoxypropan-2-yl)quinoline-4-carboxamide]	2.1	1.5
N#C[C@@H]1CSCN1C(=O)CNC(=O)c1ccnc2ccc(C3CCOCC3)cc12 [Example 20, (R)—N-(2-(4-Cyanothiazolidin-3-yl)-2-oxoethyl)-6-(tetrahydro-2H-pyran-4-yl)quinoline-4-carboxamide]	0.5	0.3
CCOC1(c2ccc3nccc(C(=O)NCC(=O)N4CSC[C@H]4C#N)c3c2)CCOCC1 [Example 23, (R)—N-(2-(4-Cyanothiazolidin-3-yl)-2-oxoethyl)-6-(4-ethoxytetrahydro-2H-pyran-4-yl)quinoline-4-carboxamide]	0.7	0.5
N#C[C@@H]1CSCN1C(=O)CNC(=O)c1ccnc2ccc(C3(C#N)CC3)cc12 [Example 70, (R)-6-(1-Cyanocyclopropyl)-N-(2-(4-cyanothiazolidin-3-yl)-2-oxoethyl)quinoline-4-carboxamide]	0.7	0.7
